Data reported in PMC7037682, “Herb–Drug Interaction of Red Ginseng Extract and Ginsenoside Rc with Valsartan in Rats” (Molecules, 2020).
Like-named read-outs stand apart in the source and are kept apart here.

Key:
OAT3 = molecular target: T1, OAT3 (Homo sapiens, UniProt Q8TCC7); assay: Inhibition of OAT3-mediated [3H]ES uptake in HEK293-OAT3 cells
T1 sequence (Q8TCC7 1-542): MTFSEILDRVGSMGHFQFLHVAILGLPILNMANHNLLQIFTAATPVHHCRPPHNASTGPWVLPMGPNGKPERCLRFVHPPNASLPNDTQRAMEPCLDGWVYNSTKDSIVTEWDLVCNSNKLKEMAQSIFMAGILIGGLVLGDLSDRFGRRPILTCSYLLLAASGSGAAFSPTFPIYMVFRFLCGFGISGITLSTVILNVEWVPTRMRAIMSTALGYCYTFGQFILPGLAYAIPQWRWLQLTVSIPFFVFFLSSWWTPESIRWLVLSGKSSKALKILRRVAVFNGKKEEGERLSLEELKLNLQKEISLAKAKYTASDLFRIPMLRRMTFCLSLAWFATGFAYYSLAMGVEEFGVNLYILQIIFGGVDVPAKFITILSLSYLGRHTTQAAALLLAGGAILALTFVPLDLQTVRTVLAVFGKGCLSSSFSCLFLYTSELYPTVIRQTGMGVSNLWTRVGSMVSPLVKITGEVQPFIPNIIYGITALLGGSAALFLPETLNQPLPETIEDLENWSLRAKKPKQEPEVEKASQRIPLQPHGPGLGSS
Method: (§1) HEK293 cells overexpressing the OCT1, OCT2, OAT1, OAT3, OATP1B1, and OATP1B3 transporters (HEK293-OCT1, -OCT2, -OAT1, -OAT3, -OATP1B1, and -OATP1B3, respectively) and HEK293-mock cells (Corning Life Sciences; Woburn, MA, USA) were used and characterized as previously described.
(§2) HEK293 cells overexpressing drug transporters and HEK293-mock cells were seeded in poly-D-lysine-coated 96-well plates at a density of 10^5 cells/well and were cultured in DMEM supplemented with 10% FBS, 5 mM non-essential amino acids, and 2 mM sodium butyrate in a humidified atmosphere with 8% CO2 at 37 °C.
(§3) To examine the effects of ginsenosides and typical inhibitors on transporter activity, aliquots (100 μL) of HBSS containing the probe substrate and ginsenosides or typical inhibitors were added to the cells after aspirating pre-incubated HBSS. The concentrations and probe substrates were as follows: 0.1 μM [^3H]MPP^+ for OCT1 and OCT2, 0.1 μM [^3H]PAH for OAT1, 0.1 μM [^3H]ES for OAT3 and OATP1B1, and 0.1 μM [^3H]EG for OATP1B3. […] Then the uptake of probe substrates into HEK293-mock cells and HEK293-OCT1, -OCT2, -OAT1, -OAT3, -OATP1B1, and -OATP1B3 cells in the presence and absence of typical inhibitor or each ginsenoside with previously described concentration range was measured for 5 min. Immediately after placing the plates on ice, the cells were washed three times with 100 μL of ice-cold HBSS, followed by lysing with 50 μL of 10% SDS solution and mixing with 150 μL of Optiphase cocktail solution (Perkin Elmer Inc., Boston, MA, USA). The radioactivity of the probe substrates in the cells was determined using a liquid scintillation counter.
(§4) In the inhibition studies, the uptake rate of substrate by HEK293 cells overexpressing the respective transporters was used as the control (100%) and the uptake rate of substrates in the presence of typical inhibitors or ginsenosides expressed as a percentage of the control. The inhibition data were fitted to an inhibitory effect model using Sigma plot (version 10.0; Systat Software Inc., San Jose, CA, USA). IC50 value indicated the half-maximal inhibitory concentration of the inhibitor.

OCT1 = molecular target: T2, OCT1 (Homo sapiens, UniProt O15245); assay: Inhibition of OCT1-mediated [3H]MPP+ uptake in HEK293-OCT1 cells
T2 sequence (O15245 1-554): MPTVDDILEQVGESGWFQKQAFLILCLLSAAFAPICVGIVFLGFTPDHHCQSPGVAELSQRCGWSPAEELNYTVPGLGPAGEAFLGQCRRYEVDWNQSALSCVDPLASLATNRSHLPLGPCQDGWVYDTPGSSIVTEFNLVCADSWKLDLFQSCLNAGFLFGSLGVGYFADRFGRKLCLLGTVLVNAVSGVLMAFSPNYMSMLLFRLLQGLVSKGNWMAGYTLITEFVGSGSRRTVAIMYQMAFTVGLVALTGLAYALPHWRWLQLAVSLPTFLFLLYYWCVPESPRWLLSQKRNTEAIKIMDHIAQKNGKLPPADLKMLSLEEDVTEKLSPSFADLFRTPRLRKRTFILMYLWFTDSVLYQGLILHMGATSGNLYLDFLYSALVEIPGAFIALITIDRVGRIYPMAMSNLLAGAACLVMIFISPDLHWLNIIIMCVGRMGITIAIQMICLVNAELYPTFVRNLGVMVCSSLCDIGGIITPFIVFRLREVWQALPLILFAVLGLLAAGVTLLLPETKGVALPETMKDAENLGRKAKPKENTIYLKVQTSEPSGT
Method: as §1, §2, §3, §4

[1] = Plasma pharmacokinetics of ginsenosides in rats after 1-week repeated RGE; conditions: for maximum plasma concentration (molar): after RGE 1.5 g/kg/day po for 7 days; for detection in rat plasma: LC-MS/MS
Method: The rats were randomly divided into the control and RGE groups. The RGE group received a RGE suspension (1.5 g/mL/kg/day, in distilled water) for 7 days via oral gavage. The control group received distilled water for 7 days via oral gavage. After 1 h following the last RGE treatment, valsartan was injected intravenously to both groups via the tail vein at 1 mg/mL/kg (dissolved in DMSO: saline = 2:8, v/v). […] After centrifugation of the blood samples at 16,000× g for 10 min, aliquots (50 μL each) of plasma samples were stored at −80 °C until the analysis of ginsenosides and valsartan.
The residue was reconstituted with 100 μL of 70% methanol consisting of 0.1% formic acid. An aliquot (20 μL) from the sample was injected into the LC-MS/MS system.
After freezing the aqueous layer at −80 °C for 2 h, the upper organic layer was transferred to a clean tube and evaporated to dryness. […] An aliquot (20 μL) from the sample was injected into the LC-MS/MS system. The samples were eluted through an Omega Polar C18 column (2.1 mm × 100 mm, 3 µm particle size) (Phenomenex, Torrance, CA, USA) using a mobile phase consisting of 0.1% formic acid in water: 0.1% formic acid in methanol (15:85, v/v) at a flow rate of 0.2 mL/min.
Pharmacokinetic parameters were calculated from plasma concentration-time profile using non-compartment analysis of WinNonlin (version 5.1; Pharsights, Cary, NC, USA). The statistical significance was assessed by t-test using Statistical Package for the Social Sciences (version 24.0; SPSS Inc., Chicago, IL, USA).

[2] = read-out: IC50 OAT3, HEK293-OAT3, 0.1 μM [3H]ES uptake, 5 min
[3] = read-out: IC50 OCT1, HEK293-OCT1, 0.1 μM [3H]MPP+ uptake, 5 min
[4] = after RGE 1.5 g/kg/day po for 1 week
[5] = rat plasma, 0 to 48 h, after RGE 1.5 g/kg/day po for 1 week
[6] = rat plasma, after RGE 1.5 g/kg/day po for 1 week

IC50 (OAT3) [µM]	IC50 (OCT1) [µM]	AUC ([1]; rat, plasma, po, 1.5 g/kg/day) [ng·h/mL]	Cmax ([1]; rat, plasma, po, 1.5 g/kg/day) [ng/mL]	MRT ([1]; rat, plasma, po, 1.5 g/kg/day) [h]	Tmax ([1]; rat, plasma, po, 1.5 g/kg/day) [h]	half-life ([1]; rat, plasma, po, 1.5 g/kg/day) [h]	SMILES	maximum plasma concentration (molar) ([1]; rat plasma) [nM]	IC50 (OAT3; [2]) [µM]	IC50 (OCT1; [3]) [µM]	detection in rat plasma [1, 4]	AUC [1, 5] [ng·h/mL]	Cmax [1, 6] [ng/mL]	MRT [1, 6] [h]	T1/2 [1, 6] [h]	Tmax [1, 6] [h]
> 100	> 100	321 ± 97.2	11.7 ± 2.49	18.4 ± 1.89	3.33 ± 1.15	24.2 ± 7.51	CC(C)=CCC[C@](C)(O[C@@H]1O[C@H](CO[C@@H]2O[C@@H](CO)[C@H](O)[C@H]2O)[C@@H](O)[C@H](O)[C@H]1O)[C@H]1CC[C@]2(C)[C@@H]1[C@H](O)C[C@@H]1[C@@]3(C)CC[C@H](O[C@@H]4O[C@H](CO)[C@@H](O)[C@H](O)[C@H]4O[C@@H]4O[C@H](CO)[C@@H](O)[C@H](O)[C@H]4O)C(C)(C)[C@@H]3CC[C@]12C [Rc, ginsenoside Rc]	10.6	–	–	–	–	–	–	–	–
> 100	> 100	–	–	–	–	–	CC(C)=CCC[C@](C)(O[C@@H]1O[C@H](CO)[C@@H](O)[C@H](O)[C@H]1O)[C@H]1CC[C@]2(C)[C@@H]1[C@H](O)C[C@@H]1[C@@]3(C)CC[C@H](O)C(C)(C)[C@@H]3[C@@H](O[C@@H]3O[C@H](CO)[C@@H](O)[C@H](O)[C@H]3O)C[C@]12C [Rg1, ginsenoside Rg1]	–	–	–	not detected	–	–	–	–	–
> 100	> 100	283 ± 58.9	10 ± 1.04	18.6 ± 1.43	3.33 ± 1.15	30.2 ± 5.48	CC(C)=CCC[C@](C)(O[C@@H]1O[C@H](CO[C@@H]2OC[C@H](O)[C@H](O)[C@H]2O)[C@@H](O)[C@H](O)[C@H]1O)[C@H]1CC[C@]2(C)[C@@H]1[C@H](O)C[C@@H]1[C@@]3(C)CC[C@H](O[C@@H]4O[C@H](CO)[C@@H](O)[C@H](O)[C@H]4O[C@@H]4O[C@H](CO)[C@@H](O)[C@H](O)[C@H]4O)C(C)(C)[C@@H]3CC[C@]12C [Rb2, ginsenoside Rb2]	9.1	–	–	–	–	–	–	–	–

Second part, the compound before the results:

SMILES	IC50 (OAT3) [µM]	IC50 (OCT1) [µM]	AUC ([1]; rat, plasma, po, 1.5 g/kg/day) [ng·h/mL]	Cmax ([1]; rat, plasma, po, 1.5 g/kg/day) [ng/mL]	MRT ([1]; rat, plasma, po, 1.5 g/kg/day) [h]	Tmax ([1]; rat, plasma, po, 1.5 g/kg/day) [h]	half-life ([1]; rat, plasma, po, 1.5 g/kg/day) [h]	maximum plasma concentration (molar) ([1]; rat plasma) [nM]	IC50 (OAT3; [2]) [µM]	IC50 (OCT1; [3]) [µM]	detection in rat plasma [1, 4]	AUC [1, 5] [ng·h/mL]	Cmax [1, 6] [ng/mL]	MRT [1, 6] [h]	T1/2 [1, 6] [h]	Tmax [1, 6] [h]
CC(C)=CCCC(C)(O)[C@H]1CC[C@]2(C)[C@@H]1[C@H](O)C[C@@H]1[C@@]3(C)CC[C@H](O)C(C)(C)[C@@H]3CC[C@]12C (stereo in doubt) [PPD, protopanaxadiol]	–	–	–	–	–	–	–	48.4	> 100	> 100	detected	542.01 ± 141.09	20.56 ± 9.47	21.56 ± 3.31	26.95 ± 18.33	16.50 ± 12.48
CC(C)=CCC[C@](C)(O)[C@H]1CC[C@]2(C)[C@@H]1[C@H](O)C[C@@H]1[C@@]3(C)CC[C@H](O)C(C)(C)[C@@H]3[C@@H](O[C@@H]3O[C@H](CO)[C@@H](O)[C@H](O)[C@H]3O)C[C@]12C [Rh1, ginsenoside Rh1]	> 100	> 100	–	–	–	–	–	–	–	–	not detected	–	–	–	–	–
CC(C)=CCC[C@](C)(O)[C@H]1CC[C@]2(C)[C@@H]1[C@H](O)C[C@@H]1[C@@]3(C)CC[C@H](O)C(C)(C)[C@@H]3[C@@H](O)C[C@]12C [PPT, protopanaxatriol]	–	–	–	–	–	–	–	38.5	> 100	> 100	detected	429.91 ± 105.75	16.97 ± 8.99	23.12 ± 2.26	46.38 ± 13.27	16.50 ± 12.48
